Results on 27 compounds are retold here after patent publication US10858360B2, “Tricyclic gyrase inhibitors” (priority 2011, dated 2020).

In one test the test system is S. aureus ATCC 13709. Nature of the test: MIC, S. aureus ATCC 13709 (Alamar Blue broth microdilution). In kind it is cell-based. As to conditions: Alamar Blue read after overnight incubation at 35° C.; for MIC Sa: S. aureus; for MIC: Staphylococcus aureus, ATCC13709, S. aureus. (Alamar Blue is a resazurin reagent that responds to reducing activity.)
The subject of another test is E. coli ATCC 25922. In words: MIC, E. coli ATCC 25922. In kind it is cell-based. As to conditions: Alamar Blue read after overnight incubation at 35° C.; for MIC Ec: E. coli; for MIC: Escherichia coli, ATCC25922, E. coli.

≈ marks a conversion by molar mass, not a printed value.

Take `CNc1cc(F)cc2c1[nH]c1nc(Oc3cnc(CCO)nc3)nc(N3CC4CC3C[C@@H]4N)c12` (stereo partly drawn) [4.428]: the “MIC Sa” value in the test on S. aureus ATCC 13709 was no more than 0.5 µg/mL. Further, the “MIC Ec” value in the test on E. coli ATCC 25922 turned out to be 2 µg/mL (≈ 4.31 µM).
Turning to `CNc1cc(F)cc2c1[nH]c1nc(Oc3cnc(CCO)nc3)nc(N3CC4C[C@@H](N)C4C3)c12` (stereo partly drawn) [4.429], in the test on S. aureus ATCC 13709, the “MIC Sa” value is no more than 0.5 µg/mL. For the same compound, the “MIC Ec” value against E. coli ATCC 25922 is 1 µg/mL (≈ 2.15 µM).
`CNc1cc(F)cc2c1[nH]c1nc(Oc3cnc(C(C)O)nc3)nc(C3CC4(CC[C@H]4N)C3)c12` (stereo partly drawn) [4.430]: the MIC with S. aureus ATCC 13709 and in the test on E. coli ATCC 25922 was no more than 0.5 µg/mL throughout.
`CNc1cc(F)cc2c1[nH]c1nc(Oc3cnc(C(C)(C)O)nc3)nc(C3CC4(CC[C@H]4N)C3)c12` (stereo partly drawn) [4.431]: the MIC against S. aureus ATCC 13709 and against E. coli ATCC 25922 was no more than 0.5 µg/mL each time.
Turning to `CNc1cc(F)cc2c1[nH]c1nc(Oc3cnc(OC)nc3)nc(N3C[C@H](N)C4(CC4)C3)c12` [4.433], the MIC in the test with S. aureus ATCC 13709 and in the test on E. coli ATCC 25922 was no more than 0.5 µg/mL each time.
For `CNc1cc(F)cc2c1[nH]c1nc(Oc3cnc(C#N)c(C)c3)nc(N3CC4CC3C[C@@H]4N)c12` (stereo partly drawn) [4.435], the MIC in the test with S. aureus ATCC 13709 and against E. coli ATCC 25922 was no more than 0.5 µg/mL each time.
On to `CNc1cc(F)cc2c1[nH]c1nc(Oc3cnc(C)nc3)nc(N3CC(N)C(C(F)(F)F)C3)c12` (stereo not drawn) [4.436], for which the MIC in the test with S. aureus ATCC 13709 is no more than 0.5 µg/mL; in the test on E. coli ATCC 25922, greater than 16 µg/mL.
On the same counts, the results for `CNc1cc(F)cc2c1[nH]c1nc(Oc3cnc(C)nc3)nc(N3CC(N)C(C(=O)OC)C3)c12` (stereo not drawn) [4.437] are no more than 0.5 µg/mL and 1 µg/mL (≈ 2.14 µM).
On to `CNc1cc(F)cc2c1[nH]c1nc(Oc3cnc(C)nc3)nc(N3CC(N)C(C(=O)N4CCOCC4)C3)c12` (stereo not drawn) [4.438], for which the MIC amounted to 1 µg/mL (≈ 1.92 µM) with S. aureus ATCC 13709 and 16 µg/mL (≈ 30.7 µM) in the test on E. coli ATCC 25922.
On to `CNc1cc(F)cc2c1[nH]c1nc(Oc3cnc(C)nc3)nc(N3CC(N)C(C(=O)NCC(C)O)C3)c12` (stereo not drawn) [4.439], for which the MIC against S. aureus ATCC 13709 was 8 µg/mL (≈ 15.7 µM); with E. coli ATCC 25922, greater than 16 µg/mL.
The matching figures for `CNc1cc(F)cc2c1[nH]c1nc(Oc3cnc(C)nc3)nc(N3CC(N)C(C(=O)NCCN4CCOCC4)C3)c12` (stereo not drawn) [4.440]: 16 µg/mL (≈ 28.3 µM) and greater than 16 µg/mL.
Regarding `CNc1cc(F)cc2c1[nH]c1nc(Oc3cnc(C(C)(C)C)nc3)nc(N3CC4CC3C[C@H]4N)c12` (stereo partly drawn) [4.441], the MIC against S. aureus ATCC 13709 and with E. coli ATCC 25922 was no more than 0.5 µg/mL in each case.
For `CNc1cc(F)cc2c1[nH]c1nc(Oc3cnc(C(C)(C)N)nc3)nc(N3C[C@H]4CC3C[C@H]4N)c12` [4.442], the MIC came to 1 µg/mL (≈ 2.09 µM) in the test with S. aureus ATCC 13709 and 2 µg/mL (≈ 4.19 µM) against E. coli ATCC 25922.
On to `CNc1cc(F)cc2c1[nH]c1nc(Oc3cnc(CF)nc3)nc(N3C[C@H]4CC3C[C@H]4N)c12` [4.443], for which the MIC in the test with S. aureus ATCC 13709 and against E. coli ATCC 25922 was no more than 0.5 µg/mL each time.
Consider `CNc1cc(F)cc2c1[nH]c1nc(Oc3cnc(C)nc3)nc(-c3cccnc3N)c12` [4.448], for which the minimum inhibitory concentration (MIC) was no more than 0.5 µg/mL against S. aureus ATCC 13709 and 1 µg/mL (≈ 2.4 µM) with E. coli ATCC 25922.
As to `CNc1cc(F)cc2c1[nH]c1nc(Oc3cnc(C)nc3)nc(-c3cncnc3)c12` [4.449], the results for the MIC against S. aureus ATCC 13709 and in the test with E. coli ATCC 25922 were no more than 0.5 µg/mL and greater than 16 µg/mL, respectively.
As for `CNc1cc(F)cc2c1[nH]c1nc(Oc3cnc(C)nc3)nc(-c3cncc(N)c3)c12` [4.450], the MIC against S. aureus ATCC 13709 was no more than 0.5 µg/mL; against E. coli ATCC 25922 it was 2 µg/mL (≈ 4.8 µM).
The matching figures for `CNc1cc(F)c(F)c2c1[nH]c1nc(Oc3cnc(C)nc3)nc(N3CC4(CC[C@H]4N)C3)c12` [5.01]: no more than 0.5 µg/mL and no more than 0.5 µg/mL.
On to `CNc1cc(F)c(F)c2c1[nH]c1nc(Oc3cnc(C)nc3)nc(N3CC4(CCC4N)C3)c12` (stereo not drawn) [5.1], for which, in the test with S. aureus ATCC 13709, the “MIC Sa” value was no more than 0.5 µg/mL. Further, in the test on E. coli ATCC 25922, the “MIC Ec” value is no more than 0.5 µg/mL.
Take `CNc1cc(F)c(F)c2c1[nH]c1nc(Oc3cnc(C)nc3)nc(N3CCC4(CC4N)C3)c12` (stereo not drawn) [5.02]: the “MIC Sa” value in the test with S. aureus ATCC 13709 was no more than 0.5 µg/mL. In addition, the “MIC Ec” value in the test on E. coli ATCC 25922 is no more than 0.5 µg/mL.
On to `CNc1cc(F)c(F)c2c1[nH]c1nc(Oc3cnc(C)nc3)nc(N3CC4CC(N)C4C3)c12` (stereo not drawn) [5.03], for which, in the test with S. aureus ATCC 13709, the “MIC Sa” value is no more than 0.5 µg/mL. For the same compound, the “MIC Ec” value with E. coli ATCC 25922 was no more than 0.5 µg/mL.
With `CNc1cc(F)c(F)c2c1[nH]c1nc(Oc3cnc(C)nc3)nc(N3CC(N)C4(CC4)C3)c12` (stereo not drawn) [5.05], the “MIC Sa” value against S. aureus ATCC 13709 was no more than 0.5 µg/mL. For the same compound, the “MIC Ec” value in the test on E. coli ATCC 25922 was no more than 0.5 µg/mL.
Regarding `CNc1cc(F)c(F)c2c1[nH]c1nc(Oc3cnc(C)nc3)nc(N3CC(N)C3)c12` [5.06], in the test with S. aureus ATCC 13709, the “MIC Sa” value is no more than 0.5 µg/mL. Moreover, in the test with E. coli ATCC 25922, the “MIC Ec” value is no more than 0.5 µg/mL.
As for `CNc1cc(F)c(F)c2c1[nH]c1nc(Oc3cnc(N)nc3)nc(N3CC4(CCC4N)C3)c12` (stereo not drawn) [5.07], the “MIC Sa” value in the test with S. aureus ATCC 13709 is no more than 0.5 µg/mL. Further, the “MIC Ec” value against E. coli ATCC 25922 was 1 µg/mL (≈ 2.21 µM).
On the same counts, the results for `CNc1cc(F)c(F)c2c1[nH]c1nc(Oc3cncnc3)nc(N3CC(N)C4(CC4)C3)c12` (stereo not drawn) [5.09] are no more than 0.5 µg/mL and no more than 0.5 µg/mL.
`CNc1cc(F)c(F)c2c1[nH]c1nc(Oc3cnc(CO)nc3)nc(N3C[C@H]4C[C@@H]3C[C@H]4N)c12` [5.14]: the minimum inhibitory concentration (MIC) in the test on S. aureus ATCC 13709 and against E. coli ATCC 25922 was no more than 0.5 µg/mL each time.
As for `CNc1cc(F)c(F)c2c1[nH]c1nc(Oc3cnc4c(c3)ncn4C3CC3)nc(N3C[C@H]4C[C@@H]3C[C@H]4N)c12` [5.15], the MIC was no more than 0.5 µg/mL in the test on S. aureus ATCC 13709 and 1 µg/mL (≈ 1.93 µM) with E. coli ATCC 25922.

For orientation: MIC means the lowest concentration that inhibits growth of the organism.
